# Values quoted from earlier work in patent EP0341603A2, “Atrial peptide derivatives” (ABBOTT LABORATORIES, priority 1988, dated 1989).
# Bridge positions count the residues as written; N and C are the ends. Ends that are not written are not given here.
# Conditions: relative to furosemide
substance,measurement,value
"alpha-hANP: alpha-human atrial natriuretic polypeptide isolated from human atrium, a polypeptide consisting of 28 amino acids (SLRRSSCFGGRMDRIGAQSGLGCNSFRY; disulfide 7-23 (inferred); ends not checked; UniProt P01160 124-151, looked up)","diuretic action, times as strong as that of furosemide",about 1000 times
